Measurements as given in patent publication US20260034227A1, “AZLACTONE-BASED POLYMERS AS A SCAFFOLD FOR DIVERSE APPLICATIONS IN DRUG AND GENE DELIVERY” (University of Mississippi, priority 2022, published 2026).

Test: Pharmacokinetics of DBAC generated from polymer-drug conjugate (UPLC-MS/MS)
Assay type: in vivo, CD-1 mice
Conditions: CD1 mice; for F: oral relative to intravenous, 10 mg/kg
Procedure: UPLC-MS/MS. Chromatography was performed on an AcquityTM UPLC system (Waters Corp, Milford, MA) with an autosampler temperature at 10° C. Waters Acquity UPLC® BEH Phenyl column (3.0×50 mm, 1.7 μm particle size) was used for chromatographic separation with linear gradient elution consisting of (A) 90% acetonitrile and (B) 10% of 0.2% formic acid in Milli-Q water as mobile phases. The flow rate was set at 0.30 mL/min, and the injection volume was 2 μL. An Acquity Tandem Quadrupole Mass Detector (Xevo TQ-S; Waters Corp, Milford, MA) in positive electrospray ionization mode was used for mass spectrometric detection. For collision-induced dissociation, argon was used as collision gas. The cone voltage and collision energy were set at 40 V and 24 V for DBAC and 40 V and 26 V for the tolbutamide (IS), respectively. Quantification was performed using the monitoring of multiple reaction monitoring (MRM) of following transitions: m/z 276/186 for DBAC and m/z 271/90.9 for IS. […] Pharmacokinetics of […]. All procedures were performed in compliance with the University of Mississippi Animal Care and Use Committee and following the National Institutes of Health (NIH) guidelines. […] Either DBAC or […] were administered at 10 mg/kg through oral gavage or retro-orbital IV injection at a volume of 0.1 mL. The vehicle for DBAC was 10% absolute alcohol, 10% cremophor and 80% Milli-Q water, whereas the […] polymer was administered in 100% PBS. […] Blood was collected by cardiac puncture and stored in K2 EDTA tubes (SAI Infusion Technologies, #MVCB-E-300). Mice were then perfused through heart with PBS (Life Technologies, #10-010-072). Plasma was harvested by centrifuging the blood using Eppendorf […] Centrifuge (Germany) at 5,000 rpm for 5 min and stored frozen at -80±10° C. until analysis. […] Sample preparation for DBAC detection. A simple protein precipitation method was followed for extraction of DBAC from mice plasma. To an aliquot of 50 μL of plasma or tissue (GI tract, heart, lung, spleen, liver or kidney) samples, tolbutamide (internal standard, IS) solution (5 μL of 20 ng/ml) was added and mixed for 15 s on a cyclomixer (Thermo Scientific, IN, USA). After precipitation with 500 μL of acetonitrile, the mixture was vortexed for 2 min, followed by centrifugation for 10 min at 14,000 rpm on an accuSpin Micro 17R (Fisher Scientific, USA) at 5° C. An aliquot of 150 μL of clear supernatant was transferred into vials and 2 μL was injected into the UPLC-MS/MS system for analysis. The primary stock solutions of DBAC and tolbutamide (IS) were prepared in methanol at 1.0 mg/mL concentration. Working solutions of calibration standards and quality control (QC) samples were prepared by dilution with methanol and stored at -20° C. A working stock of the IS solution (20 ng/ml) was prepared in methanol and stored at -20° C.

[1] = GI tract, intravenous 10 mg/kg conjugate
[2] = GI tract, oral 10 mg/kg conjugate
[3] = Heart, intravenous 10 mg/kg conjugate
[4] = Kidney, intravenous 10 mg/kg conjugate
[5] = Kidney, oral 10 mg/kg conjugate
[6] = Liver, intravenous 10 mg/kg conjugate
[7] = Lung, intravenous 10 mg/kg conjugate
[8] = Plasma, intravenous 10 mg/kg conjugate
[9] = Plasma, oral 10 mg/kg conjugate
[10] = Spleen, intravenous 10 mg/kg conjugate

Which AUC0-α [1] does the source give for “N-(2-hydroxyethyl)-N,N-dimethyl-2-oxo-2-(2-oxo-2H-chromen-3-yl)ethanaminium [DBAC]” here?
Its AUC0-α is 18544 ± 156 ng·h/g.

What about the CO [1] of the same substance?
Its CO is 4899 ± 1104 ng/g.

What about the t1/2 [1] of the same substance?
The t1/2 was 6.97 ± 1.03 h.

What about the AUC0-α [2] of the same substance?
The AUC0-α was 95643 ± 1023 ng·h/g.

And the Tmax [2]?
Its Tmax is 1.25 ± 0.53 h.

What about the F (GI tract) of the same substance?
Its F is >100 ± 47.5%.

What about the AUC0-α [3] of the same substance?
Its AUC0-α is 8914 ± 512 ng·h/g.

And the CO [3]?
Its CO is 4961 ± 715 ng/g.

What about the t1/2 [3] of the same substance?
The t1/2 was 2.20 ± 0.78 h.

What about the AUC0-α (Heart, oral 10 mg/kg conjugate) of the same substance?
The AUC0-α was 1008 ± 95.6 ng·h/g.

What about the Tmax (Heart, oral 10 mg/kg conjugate) of the same substance?
Its Tmax is 4.38 ± 0.53 h.

What about the F (Heart) of the same substance?
The F was 11.3 ± 2.57%.

And the AUC0-α [4]?
The AUC0-α was 10575 ± 1910 ng·h/g.

And the CO [4]?
Its CO is 41296 ± 2103 ng/g.

And the t1/2 [4]?
Its t1/2 is 3.49 ± 0.59 h.

And the AUC0-α [5]?
Its AUC0-α is 490 ± 101 ng·h/g.

What about the Tmax [5] of the same substance?
The Tmax was 0.50 ± 0.00 h.

And the F (Kidney)?
Its F is 4.64 ± 2.59%.

What about the AUC0-α [6] of the same substance?
The AUC0-α was 17457 ± 3832 ng·h/g.

What about the CO [6] of the same substance?
Its CO is 36898 ± 2501 ng/g.

What about the t1/2 [6] of the same substance?
Its t1/2 is 2.24 ± 0.37 h.

What about the AUC0-α (Liver, oral 10 mg/kg conjugate) of the same substance?
The AUC0-α was 1464 ± 346 ng·h/g.

And the Tmax (Liver, oral 10 mg/kg conjugate)?
The Tmax was 0.63 ± 0.25 h.

What about the F (Liver) of the same substance?
The F was 8.38 ± 1.98%.

And the AUC0-α [7]?
Its AUC0-α is 1772 ± 141 ng·h/g.

What about the CO [7] of the same substance?
The CO was 1326 ± 202 ng/g.

What about the t1/2 [7] of the same substance?
The t1/2 was 3.73 ± 0.47 h.

What about the AUC0-α (Lung, oral 10 mg/kg conjugate) of the same substance?
Its AUC0-α is 1315 ± 85.6 ng·h/g.

What about the Tmax (Lung, oral 10 mg/kg conjugate) of the same substance?
Its Tmax is 1.25 ± 0.68 h.

What about the F (Lung) of the same substance?
The F was 74.2 ± 25.3%.

What about the AUC0-α [8] of the same substance?
The AUC0-α was 1586 ± 125 ng·h/mL.

And the CO [8]?
Its CO is 7216 ± 1023 ng/mL.

What about the t1/2 [8] of the same substance?
Its t1/2 is 1.09 ± 0.12 h.

What about the AUC0-α [9] of the same substance?
The AUC0-α was 120 ± 65.0 ng·h/mL.

What about the Cmax [9] of the same substance?
The Cmax was 119 ± 25.3 ng/mL.

And the Tmax [9]?
Its Tmax is 0.75 ± 0.29 h.

What about the F (Plasma) of the same substance?
Its F is 7.59 ± 2.48%.

What about the AUC0-α [10] of the same substance?
Its AUC0-α is 1089 ± 124 ng·h/g.

What about the CO [10] of the same substance?
Its CO is 1026 ± 248 ng/g.

What about the t1/2 [10] of the same substance?
The t1/2 was 2.27 ± 0.55 h.
